Here are results for seven molecules from US20260364175A1, “COMPOSITIONS FOR DRUG ADMINISTRATION” (Aegis Therapeutics, LLC, priority 2018, published 2026).

A value given as a limit tells only on which side of the number the result lay.

For data set [1], the system named is blood glucose. In words: Intranasal insulin with/without […] TDM, anesthesia-induced hyperglycemia model. It is filed as in vivo, mouse. The source says: Intranasal administration of drugs or agents are possible in animal models e.g., mice and rats, although the nasal opening in is very small. […] Hyperglycemic animals were induced by an intraperitoneal (IP) injection containing xylazine-ketamine and blood glucose levels were monitored over a period of time.

Data set [2] deals with blood glucose. In words: Ocular administration of insulin plus absorption enhancer, blood glucose in anesthetized rats. It counts as in vivo, rat (male Sprague-Dawley). To be noted: for effect on blood glucose / ocular insulin absorption: 0.5% enhancer with 0.2% insulin eye drops; for Blood Glucose Concentration: 0.5% surfactant, insulin eye drops; for effect on ocular insulin absorption (alkyl chain length comparison): alkylmaltosides with insulin eye drops; for effect on ocular insulin absorption: […] enhancer with insulin eye drops; for Blood Glucose: insulin eye drops + […].

Data set [3] relates to blood glucose. Description: Ocular administration of glucagon plus surfactant, blood glucose in rats. The settings on record: for Blood Glucose Concentration: 0.5% surfactant, glucagon eye drops after insulin; for effect on ocular glucagon absorption / blood D-glucose: eye drops, 0.5% surfactant plus glucagon (30 μg). It counts as in vivo, rat.
The conditions of data set [4]: cited from earlier work.
A short description of data set [5]: Buccal fast-dispersing melatonin tablets in rabbits. To be noted: for bioavailability: fast-disintegrating tablet, buccal.
Protocol: Thereafter, the animals return to consciousness. At individual time point over a two hour period, 1 mL blood samples are collected from the central ear artery. […] All samples are stored at −70 °C until assaying for melatonin. Melatonin is measured using a commercial ELISA kit manufactured by GenWay Biotech Inc., San Diego, CA.
For data set [6], the system named is blood glucose. In words: Insulin plus tetradecylmaltoside as eye drops then nose drops, blood glucose in rats. It is filed as in vivo, rat. The source says:
Tetradecylmaltoside (TDM) in combination with insulin also produced a drop in blood D-glucose levels when administered in the form of a drop intranasally as well as via a drop by the ocular route. […] Thus, intranasal delivery and administration of the alkyl saccharide with drug results in lowering of blood glucose levels.

The subject of data set [7] is Escherichia coli (ATCC No. 8739). Description: Antibacterial activity, log reduction of cfu. It is filed as cell-based. The settings on record: 0.2%; day 28. The source says:
(§1) The viable microorganisms used in the invention were not more than five passages removed from the original ATCC culture. As described herein, one passage is defined as the transfer of organisms from an established culture to fresh medium and all transfers are counted.
(§2) Cultures received from the ATCC are resuscitated according to the directions provided by the ATTC. Cells grown in broth were pelleted by centrifugation, resuspended in 1/20th the volume of fresh maintenance broth, and combined with an equal volume of 20% (v/v in water) sterile glycerol. Cells grown on agar were scraped from the surface into the maintenance broth also containing 10% glycerol broth. Small aliquots of the suspension were dispensed into sterile vials and the vials were stored in liquid nitrogen or in a mechanical freezer at a temperature no higher than about −50 °C. When a fresh seed-stock vial was required, it was removed and used to inoculate a series of working stock cultures. These working stock cultures were then used periodically (each day in the case of bacteria and yeast) to start the inoculum culture.
(§3) The culture conditions for the inoculum culture is substantially as described in Table IV. For example, suitable media can include but is not limited to, Soybean-Casein Digest or Sabouraud Dextrose Agar Medium. […]
(§4) The suspension should be refrigerated if it is not used within 2 hours. To confirm the initial cfu per mL estimate, the number of cfu per mL in each suspension was determined using the conditions of media and microbial recovery incubation times listed in Table IV (e.g., from about 3 to about 7 days). This value serves to calibrate the size of inoculum used in the test. The bacterial and yeast suspensions were used within 24 hours of harvest; whereas the fungal preparation can be stored under refrigeration for up to 7 days.
(§5) To determine which alkylglycoside formulations have antibacterial activity, the formulations were prepared in phosphate buffered saline (PBS) at pH 7. As a source of nutrition, either 1.5 mg/mL bovine serum albumin (BSA; see Tables V and VI) or 1 mg/mL of PYY was added (see Table VII) to the medium. BSA (CAS Number: 9048-46-8) was obtained from Sigma-Aldrich, St. Louis, MO, USA, n-dodecyl-4-O-α-D-glucopyranosyl-β-D-glucopyranoside and n-tetradecyl-4-O-α-D-glucopyranosyl-β-D-glucopyranoside were obtained from Anatrace Inc., Maumee, OH, USA, and PYY was obtained from Bachem California Inc., Torrance, CA, USA.
(§6) Antibacterial activity of the alkylglycosides were conducted in four sterile, capped bacteriological containers of suitable size into which a sufficient volume of alkylglycoside solution had been transferred. Each container was inoculated with one of the prepared and standardized inoculums and mixed. The volume of the suspension inoculum was between about 0.5% and about 1.0% of the volume of the alkylglycoside solution. […]. To determine the level of inhibition of growth, or reduction of growth based on a logarithmic scale, the initial concentration of viable microorganisms in each test preparation was estimated based on the concentration of microorganisms in each of the standardized inoculum as determined by the plate-count method. The inoculated containers were then incubated at about 22.5 °C±2.5. The growth or non-growth of the microorganisms in each culture/container were again determined at day 14 and day 28. The number of cfu present in each calculation was determined by the plate-count procedure standard in the art for the applicable intervals. The change in the orders of magnitude of bacterium and/or fungi was then determined by subtracting the first calculated log 10 values of the concentrations of cfu per mL present at the start or beginning (e.g., day 0), from the log 10 values of the concentration of cfu per mL for each microorganism at the applicable test intervals (e.g., day 14 and day 28; see Tables V, VI and VII).

The subject of data set [8] is Staphylococcus aureus (ATCC No. 6538). Description: Antibacterial activity, log reduction of cfu. It is filed as cell-based.
From the text: as §1, §2, §3, §4, §5, §6

Data set [9] concerns Aspergillus niger (ATCC No. 16404). In words: Antimicrobial activity, log reduction of cfu. It is filed as cell-based.
From the text: as §1, §2, §3, §4, §5, §6

Data set [10] concerns Candida albicans (ATCC No. 10231). Description: Antimicrobial activity, log reduction of cfu. It counts as cell-based.
From the text: as §1, §2, §3, §4, §5, §6

A further data set deals with human nasal epithelium. Description: Nasal mucosa irritation. The settings on record: […] in OTC nasal saline, daily, 33 days.
Setting [11] is: insulin alone intranasal, minus TDM.

For the molecule insulin (Humalog), the “lowest blood glucose level” value with blood glucose [1] (insulin + […] TDM intranasal, about 60 minute time point (about 30 min after insulin)) is given as “about 80 mg/dl”. Moreover, the blood glucose level in the data set on blood glucose [1] (insulin + […] TDM intranasal, from about 75 minute time point) lay within 80 to 100 mg/dL.
With `CCCCCCCCCCO[C@@H]1O[C@H](CO)[C@@H](O[C@H]2O[C@H](CO)[C@@H](O)[C@H](O)[C@H]2O)[C@H](O)[C@H]1O` [Decyl Maltoside, decyl-β-D-maltoside], the “effect on blood glucose / ocular insulin absorption” value in the data set on blood glucose [2] was “maintained in the normoglycemic (80-120 mg/dl) or near-normoglycemic (120-160 mg/dl) range”. In addition, the “Blood Glucose Concentration” value in the data set with blood glucose [2] (80 min) is 110 mg/dL; in the data set on blood glucose [2] (90 min), 120 mg/dL; with blood glucose [2] (100 min), 92 mg/dL; with blood glucose [2] (110 min) it was 81 mg/dL; in the data set on blood glucose [2] (120 min), 87 mg/dL; in the data set on blood glucose [3] (130 min) it was 95 mg/dL. Besides, the “Blood Glucose Concentration” value was 99 mg/dL in the data set with blood glucose [3] (140 min) and 180 mg/dL in the data set on blood glucose [3] (180 min). In addition, the “effect on ocular insulin absorption (alkyl chain length comparison)” value (shortened to “effect … (alkyl chain length comparison)”) in the data set on blood glucose [2] is given as “less absorption enhancing activity”. In addition, the “effect on ocular glucagon absorption / blood D-glucose” value with blood glucose [3] is reported as “increase significantly”.
In the case of insulin: insulin, in the data set with blood glucose [1] (setting [11]), the “return of blood glucose to normoglycemic levels” value was “never return to normoglycemic levels”, the “time after insulin administration at which blood glucose starts to decline” value is “about 110 minutes” and the “time mark at which blood glucose starts to decline” value is around 120 min.
Take `CCCCCCCCCCCCCO[C@@H]1O[C@H](CO)[C@@H](O[C@H]2O[C@H](CO)[C@@H](O)[C@H](O)[C@H]2O)[C@H](O)[C@H]1O` [Tridecyl Maltoside, tridecyl-β-D-maltoside]: the “effect on blood glucose / ocular insulin absorption” value with blood glucose [2] is given as “effective as absorption enhancers”. Moreover, the “Blood Glucose Concentration” value was 100 mg/dL with blood glucose [2] (40 min); 87 mg/dL in the data set with blood glucose [2] (50 min); 79 mg/dL in the data set with blood glucose [2] (80 min); 85 mg/dL in the data set on blood glucose [2] (90 min); 76 mg/dL in the data set with blood glucose [2] (100 min); 74 mg/dL in the data set on blood glucose [2] (110 min). In addition, the figures for the “Blood Glucose Concentration” value in the data set on blood glucose [2] (120 min) and in the data set with blood glucose [3] (130 min) were 75 mg/dL and 82 mg/dL, respectively. Further, the “effect on ocular insulin absorption” value in the data set on blood glucose [2] is recorded as “sustained for the two hour time course of the experiment”. Moreover, the “effect … (alkyl chain length comparison)” value in the data set with blood glucose [2] was “more effective”. Also, in the data set with blood glucose [3], the “effect on ocular glucagon absorption / blood D-glucose” value is given as “increase significantly”.
Turning to dodecylsucrose [Dodecyl Sucrose], the “Blood Glucose Concentration” value was found to be 120 mg/dL with blood glucose [2] (40 min); 86 mg/dL with blood glucose [2] (90 min); 111 mg/dL with blood glucose [3] (130 min); 143 mg/dL with blood glucose [3] (140 min); 202 mg/dL with blood glucose [3] (150 min); 247 mg/dL in the data set with blood glucose [3] (160 min). The “Blood Glucose Concentration” value in the data set with blood glucose [3] (170 min) stood at 242 mg/dL; with blood glucose [3] (180 min), 234 mg/dL; in the data set with blood glucose [3] (190 min), 211 mg/dL. Moreover, the Blood Glucose in the data set on blood glucose [2] (120 min) came to 150 mg/dL; in the data set with blood glucose [2] (time 0), 335 mg/dL. The “effect on ocular glucagon absorption / blood D-glucose” value in the data set with blood glucose [3] is listed as “increase significantly”.
As to `COc1ccc2[nH]cc(CCNC(C)=O)c2c1` [melatonin, 5-methoxy-N-acetyltryptamine], the mean elimination half-life entry in [4] (human, in vivo) was “roughly 45 minutes”. Also, the absolute bioavailability entry in data set [4] (oral tablets, normal healthy volunteers (DeMuro et al.)) was “approximately 15%”. Also, the “oral bioavailability (estimated)” value in data set [4] (oral) is listed as 30-50%. Further, the bioavailability entry in data set [5] (with 1% to 2% alkylsaccharide) is recorded as “at least 75%”; in data set [5] (without alkylsaccharide), “less than 50%”. Besides, the “time to maximal concentration vs tablets without alkylsaccharide” value in [5] (with alkylsaccharide) is recorded as “approximately one half the time”.
Take `CCCCCCCCCCCCCCO[C@@H]1O[C@H](CO)[C@@H](O[C@H]2O[C@H](CO)[C@@H](O)[C@H](O)[C@H]2O)[C@H](O)[C@H]1O` [Tetradecyl Maltoside, n-tetradecyl-4-O-α-D-glucopyranosyl-β-D-glucopyranoside]: in the data set on blood glucose [2], the “effect on blood glucose / ocular insulin absorption” value is on record as “effective as absorption enhancers”. Further, the “effect on ocular insulin absorption” value in the data set with blood glucose [2] is reported as “effective as absorption enhancers”. Besides, the “effect … (alkyl chain length comparison)” value in the data set on blood glucose [2] is “more effective”. For the same molecule, the “Blood Glucose” value turned out to be 322 mg/dL with blood glucose [6] (0 min, insulin eye drops with […]); 335 mg/dL with blood glucose [6] (15 min, insulin eye drops with […]); 276 mg/dL with blood glucose [6] (30 min, insulin eye drops with […]); 221 mg/dL in the data set with blood glucose [6] (45 min, insulin eye drops with […]); 212 mg/dL in the data set on blood glucose [6] (60 min, insulin eye drops with […]); 167 mg/dL in the data set on blood glucose [6] (75 min, insulin eye drops with […]). Moreover, the “Blood Glucose” value in the data set with blood glucose [6] (90 min, insulin eye drops with […]) turned out to be 174 mg/dL; in the data set with blood glucose [6] (120 min, insulin eye drops with […]), 208 mg/dL; in the data set with blood glucose [6] (135 min, after insulin nose drops with 0.5%), 129 mg/dL; in the data set with blood glucose [6] (150 min, after insulin nose drops with 0.5%), 74 mg/dL; in the data set on blood glucose [6] (165 min, after insulin nose drops with 0.5%), 76 mg/dL; with blood glucose [6] (180 min, after insulin nose drops with 0.5%), 68 mg/dL. For the same molecule, the “Blood Glucose” value in the data set on blood glucose [6] ([…], insulin eye drops with […]) was 167 mg/dL. The “effect on blood glucose” value in the data set with blood glucose [6] (0.2% insulin eye drops with […] TDM) was “prompt and prominent drop in blood glucose levels”. Besides, the “growth from initial count” value in data set [7] is “No growth”; in [9] (0.2%, day 28), “No growth”. Moreover, the log reduction at 0.2 % in data set [8] (ATCC6538, 336 h) is at least 5; in [8] (ATCC6538, 672 h), at least 5; in [9] (Aspergillus niger, ATCC16404, 336 h) it was 0.5; in data set [10] (ATCC10231, 336 h), 3; in data set [10] (ATCC10231, 672 h), at least 5.4. The “irritation of the nasal mucosa” value in the data set on human nasal epithelium is “no observable irritation of the nasal mucosa”.
